Laboratory results as given in patent publication US10300144B2, “N-terminal polysialylation” (Lipoxen Technologies Limited, priority 2006, dated 2019).

Key:
[1] = Isoelectric focusing (IEF) gel; format: physicochemical; details: IEF gel pH 3-10
Description: Novex® IEF gel was used to determine differences in insulin and CAO-insulin conjugate isoelectric points. Samples was dissolved to a concentration of 0.5 mg/ml. 5 ul sample was diluted with 5 ul Novex IEF Sample Buffer pH 3-10 and then loaded the protein sample on the gel.

blood glucose = assay: In vivo efficacy of insulin formulations (blood glucose after subcutaneous injection); parameters: species or system mice; details: for T-Test probability level of the difference against the Tris buffer, in vivo efficiency: mice
Description: The in vivo efficacy of insulin formulations was studied in female mice CD-1, 7-8 weeks old, 0.3 IU of protein dose (same activity) was injected in mice subcutaneously. Animals were divided into seven groups of four. insulin formulations were given to each animal of each group in the following manner; insulin (0.3 IU/mouse), Lantus (Aventis) insulin-PSA conjugate (14 KDa), PBS, one drop of blood was taken from each animal and was measured blood glucose by ACCU-CHEK Active (Roche Diagnostics).

liver enzymes = details: cited from earlier work
[2] = cyanuric chloride activated PEG (2000 Da) conjugates; cited from earlier work
blood sugar levels = details: rabbits, calculated on a molar basis; cited from earlier work
[3] = Colominic acid (CAO) stability at different pH; format: physicochemical
Description: Colominic acid samples (CA and CAO) were dissolved in NaNO3 (0.2M), CH3CN (10%; 5 mg/ml) and were chromatographed on over 2× GMPWXL columns with detection by refractive index (GPC system: VE1121 GPC solvent pump, VE3580 RI detector and collation with Trisec 3 software (Viscotek Europe Ltd). Samples (5 mg/ml) were filtered over 0.45 μm nylon membrane and run at […] with 0.2M NaNO3 and CH3CN (10%) as the mobile phase.
The rules for chemistry of the PEGylation cannot be applied to polysialylation as such because of the difference in the physiochemical properties of these molecules. PSA is an acid labile polymer and is stable for weeks around neutral pH (FIG. 3). […] Polysialic acid is highly hydrophilic whereas PEG is an ampiphilic molecule in nature. When the polysialylation is carried out using conditions used for PEGylation, aggregation and precipitation of the proteins is seen in many cases.

## 13 kDa CAO-insulin: N-terminal conjugate of insulin with 13 kDa oxidised colominic acid (polysialic acid)
[1]
  isoelectric point (pI): no fixed isoelectric point
Blood glucose; time 32.0 minutes
  T-Test probability level of the difference against the Tris buffer, in vivo efficiency: ** (** P < 0.01)
Blood glucose; time 64.5 minutes
  T-Test probability level of the difference against the Tris buffer, in vivo efficiency: *** (*** P < 0.001)
Blood glucose; time 99.4 minutes
  T-Test probability level of the difference against the Tris buffer, in vivo efficiency: *** (*** P < 0.001)

## 15 KDa CAO-insulin (Sigma): conjugate of insulin with 15 kDa oxidised colominic acid
Blood glucose; conjugation pH 6.0 versus 7.4
  pH effect (of polysialylation) on in vivo efficiency: pH 6.0 is better than 7.4
Blood glucose; time 30 (unit not given)
  probability level of the difference against the PBS buffer: ** (**P < 0.01)
Blood glucose; time 60 (unit not given)
  probability level of the difference against the PBS buffer: *** (***P < 0.001)
Blood glucose; time 90 (unit not given)
  probability level of the difference against the PBS buffer: *** (***P < 0.001)
Blood glucose; time 120 (unit not given)
  probability level of the difference against the PBS buffer: ** (**P < 0.01)
Blood glucose; time 150 (unit not given)
  probability level of the difference against the PBS buffer: * (*P < 0.05)

## 21 kDa CAO-insulin: conjugate of insulin with 21 kDa oxidised colominic acid
Blood glucose; time 64.5 minutes
  T-Test probability level of the difference against the Tris buffer, in vivo efficiency: *** (*** P < 0.001)
Blood glucose; time 99.4 minutes
  T-Test probability level of the difference against the Tris buffer, in vivo efficiency: *** (*** P < 0.001)
Blood glucose; time 230.2 minutes
  T-Test probability level of the difference against the Tris buffer, in vivo efficiency: * (* P < 0.05)

## 21.5 kd CAO-insulin: conjugate of insulin with 21.5 kDa oxidised colominic acid (FIG. 9)
Blood glucose; among conjugates of FIG. 9 (10, 15, 21.5 kDa), PBS control
  effect on decreasing blood glucose in mice: most significant effect on the decreasing blood glucose in mice

## 27 kDa CAO-insulin: conjugate of insulin with 27 kDa oxidised colominic acid
[1]
  isoelectric point (pI): no fixed isoelectric point
Blood glucose; time 32.0 minutes
  T-Test probability level of the difference against the Tris buffer, in vivo efficiency: ** (** P < 0.01)
Blood glucose; time 64.5 minutes
  T-Test probability level of the difference against the Tris buffer, in vivo efficiency: *** (*** P < 0.001)
Blood glucose; time 99.4 minutes
  T-Test probability level of the difference against the Tris buffer, in vivo efficiency: ** (** P < 0.01)
Blood glucose; time 230.2 minutes
  T-Test probability level of the difference against the Tris buffer, in vivo efficiency: ** (** P < 0.01)
Blood glucose; time 1354.9 minutes
  T-Test probability level of the difference against the Tris buffer, in vivo efficiency: ** (** P < 0.01)

## 32 kDa CAO-insulin: conjugate of insulin with 32 kDa oxidised colominic acid
Blood glucose; time 32.0 minutes
  T-Test probability level of the difference against the Tris buffer, in vivo efficiency: *** (*** P < 0.001)
Blood glucose; time 64.5 minutes
  T-Test probability level of the difference against the Tris buffer, in vivo efficiency: *** (*** P < 0.001)
Blood glucose; time 99.4 minutes
  T-Test probability level of the difference against the Tris buffer, in vivo efficiency: *** (*** P < 0.001)
Blood glucose; time 1354.9 minutes
  T-Test probability level of the difference against the Tris buffer, in vivo efficiency: * (* P < 0.05)

## PEG(1500)-B1-insulin: Geiger et al./Ehrat et al. PEG-insulin adduct modified at residue PheB1
Liver enzymes
  stability to liver enzymes versus native insulin: far more stable

## PEG-insulin conjugates: Davis et al. conjugates of insulin with cyanuric chloride activated PEG (2000 Da)
[2]
  activity (partially active): about 50%

## insulin [reference compound]
Blood glucose; time 32.0 minutes
  T-Test probability level of the difference against the Tris buffer, in vivo efficiency: *** (*** P < 0.001)
Blood glucose; time 64.5 minutes
  T-Test probability level of the difference against the Tris buffer, in vivo efficiency: *** (*** P < 0.001)
Blood glucose; time 99.4 minutes
  T-Test probability level of the difference against the Tris buffer, in vivo efficiency: *** (*** P < 0.001)

## mPEG(1500)-B1-insulin: Obermeier et al. site-specific PEG-insulin conjugate modified at residue PheB1
Blood sugar levels
  insulin effect on reduction of blood sugar levels: 100%

## oxidised colominic acid [CAO]
[3]; pH 4.0, after 48 hours
  slow degradation, % of initial MW: 70 % of initial MW
[3]; pH 5.0, after 48 hours
  slow degradation, % of initial MW: 92 % of initial MW
[3]; pH 6.0
  stability of CAO: stable for 8 days
[3]; pH 7.4
  stability of CAO: stable for 8 days
